Measured values reported in PubChem BioAssay (NCI).
Several values for one entry are separate records, joined by “and”; a condition that tells them apart may be missing. Equal values may be shown once.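 A five-concentration, 48-hour dose response in 96-well plates underlies each endpoint, interpolated linearly between surrounding concentrations. Here, GI50 denotes the concentration required for 50% inhibition of growth. TGI marks complete inhibition of growth.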

Key:
Test in all cases: NCI tumour cell line growth inhibition, 48 h
DLD-1 colon = tested on: DLD-1 colon
DMS 114 small cell lung = tested on: DMS 114 small cell lung
RXF-631 renal = tested on: RXF-631 renal
XF 498 CNS = tested on: XF 498 CNS
BT-549 breast = tested on: BT-549 breast
MCF7 breast = tested on: MCF7 breast
MDA-MB-231 breast = tested on: MDA-MB-231 breast
MDA-N = tested on: MDA-N
T-47D breast = tested on: T-47D breast
P388 leukemia = tested on: P388 leukemia
SN12K1 renal = tested on: SN12K1 renal

SMILES | TGI (DLD-1 colon) [µM] | TGI (DMS 114 small cell lung) | TGI (RXF-631 renal) [µM] | TGI (XF 498 CNS) [µM] | other results
CC1=CC(/C=C(\C)CCCc2ccoc2)C2(OC(=O)C(C)=C2O)[C@H]2C1CC[C@@H]2C (stereo partly drawn) | > 100 | 72.2 µM |  |  | 
Cc1cc(Br)cc(C)c1NC(=O)C(=O)C(C(=O)c1ccc2ccccc2c1)C1OC(=O)c2ccccc21 (stereo not drawn) | 34.2 | 41.8 µM | > 100 | 18 | 
CCCCc1c(OC)cc(O)c2c1C(=O)c1[nH]c(C(=O)O)c(O)c(=O)c1C2=O |  |  |  |  | TGI (BT-549 breast): 52.8 µM; TGI (MCF7 breast): > 100 µM; TGI (MDA-MB-231 breast): 3.49 µM; TGI (MDA-N): > 100 µM; TGI (T-47D breast): > 100 µM
O=c1n(CC2CO2)c(=O)n(CC2CO2)c(=O)n1CC1CO1 (stereo not drawn) | 143 | 70.9 µM |  |  | GI50 (BT-549 breast): 13.6 µM; TGI (BT-549 breast): 67 µM and > 100 µM; GI50 (MCF7 breast): 3.9 µM and 1.89 µM; TGI (MCF7 breast): 85.7 µM and > 100 µM; GI50 (MDA-MB-231 breast): 35.1 µM and 52.4 µM; TGI (MDA-MB-231 breast): 84.8 µM and > 100 µM; GI50 (MDA-N): 26.5 µM; TGI (MDA-N): 72 µM and 82.6 µM; TGI (P388 leukemia): 122 µM; TGI (SN12K1 renal): 174 µM; GI50 (T-47D breast): 7.66 µM and 10 µM; TGI (T-47D breast): 70.3 µM and > 100 µM
CCN(CC)CCOc1ccc(/C=C(\C#N)c2ccc(OCCN(CC)CC)cc2)cc1 | > 83.3 | 23.2 µM |  | 29.3 | 
CCCCN(CCCC)CC(C(=O)Nc1ccc([N+](=O)[O-])cc1[N+](=O)[O-])/C(C)=N\NC(=S)NN (stereo not drawn) | > 100 | > 100 µM |  | > 100 | 
Cc1nnc(S(=O)(=O)c2ccc(N=Nc3c(N)nc(N)nc3N)cc2)s1 |  |  |  |  | TGI (BT-549 breast): > 100 µM; TGI (MCF7 breast): > 100 µM; TGI (MDA-MB-231 breast): > 100 µM; TGI (MDA-N): > 100 µM; TGI (T-47D breast): > 100 µM
CNC(=S)NC1CCCCC1NC(=S)NC (stereo not drawn) | > 100 | > 100 µM | > 100 | > 100 | 
CCOC(=O)Oc1c(OC)cc(C(=O)NC2CCc3cc(OC)c(OC)c(OC)c3-c3ccc(SC)c(=O)cc32)cc1OC (stereo not drawn) | > 70 | 0.0556 µM and < 0.007 µM |  | 0.896 | GI50 (DLD-1 colon): 0.0223 µM; GI50 (DMS 114 small cell lung): < 0.007 µM
CC1=Nc2ccccc2C1C(Cc1ccccc1N)c1c(C)[nH]c2ccccc12 (stereo not drawn) | 35.4 | 33.5 µM | 44.4 | 32.5 | 
COc1ccc(OC)c(NC(=O)C(=O)NNC(=O)c2sc(NNC(C)=O)nc2C)c1 |  |  |  | 85.3 | 
O=c1c2ccccc2[se]n1-c1cccnc1 |  |  |  |  | TGI (BT-549 breast): 84.6 µM; TGI (MCF7 breast): 80.6 µM; TGI (MDA-MB-231 breast): 66.6 µM; TGI (MDA-N): 52.9 µM; TGI (T-47D breast): 57.3 µM
O=C1CN=C(C[N+](=O)[O-])c2ccccc21 | > 100 | > 100 µM | > 100 |  | 
O=C(O/N=C1/CCCC/C1=C\c1ccccc1)c1ccccc1 | > 100 | 31.3 µM |  | > 100 | 
O=C1CCCC/C(=C/c2ccccc2)N1 | > 100 | > 100 µM |  | > 100 | 
Oc1[nH]c2ccccc2c1N=Nc1ccccc1Cl |  |  |  |  | TGI (BT-549 breast): > 100 µM; TGI (MCF7 breast): > 100 µM; TGI (MDA-MB-231 breast): 41.6 µM; TGI (MDA-N): > 100 µM; TGI (T-47D breast): > 100 µM
COC(=O)c1cc2c3ccccc3n(C(C)=O)c2cn1 | > 100 | > 100 µM | > 100 | 89.9 | 
CCCCOC(=O)C1C(c2ccc(Cl)cc2)NC(c2ccc(Cl)cc2)C(C(=O)OCCCC)S1(=O)=O (stereo not drawn) | > 100 | > 100 µM |  | > 100 | 
COC(=O)C1=C(c2ccc3c(c2)OCO3)O[C@H](c2cc(OC)c(OC)c(OC)c2)[C@H]1COC(C)=O | > 100 | 5.8 µM |  | 36.8 | 
COC(=O)C12C3C4C1C1C2C3C41C(=O)OC(C)(C)C (stereo not drawn) | > 72.3 | > 67.4 µM | > 100 | > 100 | 
CC(C)(C)OC(=O)NCC(=O)OCc1ccccc1 | > 100 | > 100 µM |  | > 100 | 
CC1OC(n2cc(F)c(=O)[nH]c2=O)C=CC1O (stereo not drawn) | > 100 | > 100 µM | > 100 | > 100 | 
O=C1c2ccccc2C2(Br)C(=O)c3ccccc3C12 (stereo not drawn) | > 100 | > 100 µM | 28.1 |  | 
